Test results reported in US20220168442A1, “ARTIFICIAL T-CELL STIMULATING MATRIX FOR IMMUNOTHERAPY” (The Johns Hopkins University, priority 2019, published 2022).
Ends that are not written are not given here.

Assays:
Assay type in all cases: cell-based, mouse
[1] = system: murine CD8+ T cells; assay: aLN ex vivo CD8+ T cell expansion and phenotype, day 7
Experimental: Artificial lymph nodes (aLNs) were synthesized by mixing 0.8 w/v % thiolated HA with either 0.1 or 2 w/v % of the crosslinker PEG-diacrylate (PEGDA), which was pre-mixed with 5 μg/mL thiolated anti-CD3 and anti-CD28 antibodies, and either no protein, 100 μM cyclic RGD, or 20 μg/mL laminin was added. Isolated murine CD8+ T cells were added to the surface of the aLNs. On day 7 viable cells were harvested, counted, and stained for phenotypic markers for flow cytometry (CD8, CD44, CD62L). For in vivo experiments, B6 mice received subcutaneous injection of aLN treatment (no protein, 570 Pa, with antigen-specific stimulation from KbSIY for 2C CD8+ T cells) or PBS. 2C CD8+ T cells were isolated, labeled with CellTrace CFSE dye and injected retro-orbitally on the same day. On days 3 and 6, blood samples were taken for CFSE division analysis via flow cytometry.

[2] = system: PMEL CD8+ T cells; assay: aTM with laminin or cyclic RGD attached, T cell expansion; settings: laminin 20 μg/mL or cyclic RGD 100 μM incorporated into aTM
Experimental: HA solution was prepared as previously described. Anti-CD3 and anti-CD28 antibodies were purchased respectively from BioXCell (145-2C11; West Lebanon, N.H., USA) and BioLegend (37.51; San Diego, Calif., USA). […] PEGDA crosslinker was added to reduced MHC-Ig dimers, anti-CD3 and anti-CD28 antibody solutions to a final concentration of 0.5% PEGDA for preparation for crosslinking. Prior to hydrogel formation, MHC-Ig dimers or anti-CD3 antibodies and anti-CD28 co-stimulatory signals with 0.5% PEGDA were added to the HA solution to directly attach signals on HA through thiol-diene chemistry. The HA-antibody solution was then mixed with PEGDA crosslinker at a 4:1 ratio to be plated. The aTM was allowed to form within flat-bottomed tissue culture plates to form a complete layer for at least 1 hour prior to washing 3 times with 1×PBS to remove any unbound stimulatory signal, and cells were subsequently plated. To investigate the effects of extracellular matrix (ECM) protein attachment, cyclic RGD (CCRRGDWLC (SEQ ID NO: 1)), which was synthesized by solid phase methods as described previously (Li et al., Stem Cells Transl. Med., 3: 662-670 (2014)), or laminin (ThermoFisher) were added to make a HA solution with protein concentration of 100 μM and 20 μg/mL, respectively, prior to the hydrogel formation. […]

[3] = system: B6 CD8+ T cells; assay: CD8+ T cell fold expansion after seven days of stimulation on aTM; settings: added to culture on 0.5-kPa aTM; 100 μM; same amount of stimulatory ligand
Experimental: Murine cells were obtained from adult mouse lymph nodes and spleens. Obtained cells were treated with ACK lysing buffer to lyse red blood cells and filtered through cell strainers to isolate splenocytes. PBMCs from healthy donors were isolated by Ficoll-Paque PLUS gradient centrifugation (GE Healthcare). CD8+T lymphocytes were then isolated from splenocytes or PBMCs by negative selection using CD8+ isolation kits and magnetic columns from Miltenyi Biotech (Auburn, Calif., USA) according to the manufacturer's protocol. […]
CD8+ T cells were isolated as previous described and resuspended in 1 mL T cell culture media. […] The CFSE fluorescence intensity was measured using BD FACSCALIBUR™ flow cytometer. Cell proliferation was analyzed using FLOWJO™ with diluted CFSE fluorescence peaks signifying population after each round of cell division. A subset of the cells were allowed to expand for 7 days and viable cells were counted with a hemocytometer to determine fold expansion. […]

For “CCRRGDWLC (SEQ ID NO: 1) (also: cyclic (mode not given here)) [cyclic RGD cell-adhesive peptide attached to aTM / aLN]”, the “percent memory T cells” value ([1]; 570-Pa aLN, day 7) was “increased”, the “total expansion compared to no protein and laminin” value ([1]; attached to softer aLNs) was “nearly doubled total expansion” and the “effect of cell-adhesive ligands on stimulation of antigen-specific PMEL CD8+ T cells” value [2] was “further increased T cell proliferation”.
For `Cc1ccc2c(c1)C(=O)C1(O)CCN(c3ccccc3)C1=N2` (centres unmarked) [blebbistatin], the “CD8+ T cell expansion in the presence of the inhibitor” value [3] was “abolished”.
For laminin, the “percent activated T cells” value ([1]; 570-Pa aLN, day 7) was “increased”.
